Where “and” joins values, the source holds several entries; their conditions need not be identical. Equal values may be shown once. Read-outs that look alike come from different tables or passages of the source. Blank lines part the entries; values can stand above or below the compound they belong to.
Test system: α7 integrin promoter
Assay: muscle cell-based assay: α7βgal+/− myoblasts/myotubes, LacZ reporter, β-galactosidase cleavage of FDG
Parameters: species or system mouse; Results in α7+/− β-galactosidase assay: scale not given here
Conditions: for Results in α7+/− β-galactosidase assay / Result in α7+/− β-galactosidase assay: Myoblasts; for AC50: log of AC50, given with negative sign, unit of AC50 not given, read-out: Fit Log AC50 (converted); for Fit Curve Class: key not given
Method in brief: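 Fluorescein generated from FDG by β-galactosidase reports α7 integrin promoter activity in differentiated myoblasts from α7+/− LacZ knock-in pups. Screening hits then went to dose-response, western blotting and a myostatin counterscreen.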

[1] = Table 12, fitted activity at zero concentration
[2] = Table 12 Compound data, concentration-response curve fit

SMILES: Cc1ccc2c(c1)/C(=C/c1ccc(F)cc1)C(=O)N2 [drawing 525]
- Results in α7+/− β-galactosidase assay (0.5 uM): 0.006732
- Results in α7+/− β-galactosidase assay (1 uM): −0.03019
- Results in α7+/− β-galactosidase assay (5 uM): −0.1238
- Results in α7+/− β-galactosidase assay (10 uM): −0.2542
- Results in α7+/− β-galactosidase assay (20 uM): −0.5127
- Results in α7+/− β-galactosidase assay (40 uM): −0.7544

SMILES: CCCCN(CC)Cc1ccc(C/N=C(\S)Nc2ccccc2F)o1 [drawing 521]
- Results in α7+/− β-galactosidase assay (0.5 uM): 0.07412
- Results in α7+/− β-galactosidase assay (1 uM): 0.014
- Results in α7+/− β-galactosidase assay (5 uM): 0.01263
- Results in α7+/− β-galactosidase assay (10 uM): 0.224
- Results in α7+/− β-galactosidase assay (20 uM): −0.04634
- Results in α7+/− β-galactosidase assay (40 uM): −0.1183

SMILES: CCC(C)NC(=O)CSc1nnc(COc2ccc(Br)cc2)o1 (centres unmarked) [drawing 599]
- Results in α7+/− β-galactosidase assay (0.5 uM): 0.03703
- Results in α7+/− β-galactosidase assay (1 uM): −0.07
- Results in α7+/− β-galactosidase assay (5 uM): −0.1163
- Results in α7+/− β-galactosidase assay (10 uM): 0.4886
- Results in α7+/− β-galactosidase assay (20 uM): −0.0797
- Results in α7+/− β-galactosidase assay (40 uM): −0.4672

SMILES: CCOC(=O)c1sc(=N)n(-c2ccc(OC)cc2)c1C [drawing 711]
- Result in α7+/− β-galactosidase assay (0.5 uM): 0.2274
- Result in α7+/− β-galactosidase assay (1 uM): 0.1661
- Result in α7+/− β-galactosidase assay (5 uM): −0.01196
- Result in α7+/− β-galactosidase assay (10 uM): 0.01787
- Result in α7+/− β-galactosidase assay (20 uM): −0.3971
- Result in α7+/− β-galactosidase assay (40 uM): −0.6044

SMILES: CCOC(=O)Cc1csc(NC(=S)NC(=O)c2cc(OC)c(OC)c(OC)c2)n1 [Compound 20]
- AC50 (Mus musculus, Table 12): 3.55 µM
- Emax (Mus musculus, read-out: Max Response [%]): 82.9%
- Fit HillSlope (Table 12, curve fit): 2.3031
- Fit Zero Activity [%] [1]: −17.7204%
- Fit Curve Class (Table 12): 1.1
- Score [2]: 84

SMILES: CCCCN(CC)Cc1ccc(C/N=C(\S)Nc2ccccc2F)o1 [drawing 313]
- Results in a α7+/− β-galactosidase assay, Myotubes, 0.5 uM (Myotubes, compound at 0.5 uM): 0.05863
- Results in a α7+/− β-galactosidase assay, Myotubes, 1 uM (Myotubes, compound at 1 uM): 0.01354
- Results in a α7+/− β-galactosidase assay, Myotubes, 5 uM (Myotubes, compound at 5 uM): −0.01977
- Results in a α7+/− β-galactosidase assay, Myotubes, 10 uM (Myotubes, compound at 10 uM): 0.01526
- Results in a α7+/− β-galactosidase assay, Myotubes, 20 uM (Myotubes, compound at 20 uM): −0.2661
- Results in a α7+/− β-galactosidase assay, Myotubes, 40 uM (Myotubes, compound at 40 uM): −0.1331

- EC50 (Mus musculus, given as log AC50 (negative values), read-out: Fit LogAC50 (converted)): 10 µM
SMILES: COc1ccc(CNC(=O)COC(=O)CCc2c[nH]c3ccccc23)cc1 [Compound 184]
- Score (Table 12 compound data): 42
- Fit Curve Class (curve class number): 2.1
- Fit HillSlope (curve fit): 2.9023
- Fit Zero Activity [%] (curve fit, activity at zero concentration): −0.6011%

SMILES: O=C(Nc1ccccc1Cl)C1CCCN1C(=O)OCc1ccccc1 (centres unmarked)
- Results in a α7+/− β-galactosidase assay, Myotubes, 0.5 uM: −0.04746
- Results in a α7+/− β-galactosidase assay, Myotubes, 1 uM: −0.07012
- Results in a α7+/− β-galactosidase assay, Myotubes, 5 uM: −0.00214
- Results in a α7+/− β-galactosidase assay, Myotubes, 10 uM: −0.05774
- Results in a α7+/− β-galactosidase assay, Myotubes, 20 uM: −0.1932
- Results in a α7+/− β-galactosidase assay, Myotubes, 40 uM: −0.2694

SMILES: COc1cc(/C=C/CN2CCN(Cc3ccc(C)o3)C(CCO)C2)ccc1O (centres unmarked) [drawing 585]
- Results in α7+/− β-galactosidase assay (5 uM): 0.1427 and 0.1728

SMILES: O=C(Nc1cc(Br)ccc1O)C1CC(c2ccccc2Cl)=NO1 (centres unmarked) [Compound 108]
- AC50 (Mus musculus, Table 12): 12.6 µM
- Fit HillSlope (Table 12, curve fit): 4.5045
- Fit Zero Activity [%] [1]: 2.0834%
- Fit Curve Class (Table 12): 2.1
- Score [2]: 43

SMILES: CC1CCN(C(CNS(=O)(=O)c2ccccc2)c2ccccc2)CC1 (centres unmarked) [drawing 404]
- Results in a α7+/− β-galactosidase assay, Myotubes, 0.5 uM (Myotubes, compound at 0.5 uM): 0.1307
- Results in a α7+/− β-galactosidase assay, Myotubes, 1 uM (Myotubes, compound at 1 uM): 0.1946
- Results in a α7+/− β-galactosidase assay, Myotubes, 5 uM (Myotubes, compound at 5 uM): −0.1201
- Results in a α7+/− β-galactosidase assay, Myotubes, 10 uM (Myotubes, compound at 10 uM): −0.1176
- Results in a α7+/− β-galactosidase assay, Myotubes, 20 uM (Myotubes, compound at 20 uM): −0.1296
- Results in a α7+/− β-galactosidase assay, Myotubes, 40 uM (Myotubes, compound at 40 uM): −0.1429

SMILES: Cc1ccccc1-n1c(S)nnc1Cc1cccs1 [drawing 312]
- Results in a α7+/− β-galactosidase assay, Myotubes, 0.5 uM (Myotubes, compound at 0.5 uM): 0.05774
- Results in a α7+/− β-galactosidase assay, Myotubes, 1 uM (Myotubes, compound at 1 uM): 0.1436
- Results in a α7+/− β-galactosidase assay, Myotubes, 5 uM (Myotubes, compound at 5 uM): −0.03653
- Results in a α7+/− β-galactosidase assay, Myotubes, 10 uM (Myotubes, compound at 10 uM): 0.08958
- Results in a α7+/− β-galactosidase assay, Myotubes, 20 uM (Myotubes, compound at 20 uM): −0.1182
- Results in a α7+/− β-galactosidase assay, Myotubes, 40 uM (Myotubes, compound at 40 uM): −0.01563

SMILES: CC(C)(C)c1ccc(C(=O)OCC(=O)Nc2sc3c(c2C#N)CCC3)cc1 [drawing 678]
- Results in α7+/− β-galactosidase assay (0.5 uM): 0.2055
- Results in α7+/− β-galactosidase assay (1 uM): 0.1005
- Results in α7+/− β-galactosidase assay (5 uM): 0.3001
- Results in α7+/− β-galactosidase assay (10 uM): −0.02658
- Results in α7+/− β-galactosidase assay (20 uM): 0.3137
- Results in α7+/− β-galactosidase assay (40 uM): 0.2257

SMILES: O=C1Nc2ccccc2/C1=C/c1c[nH]c(-c2ccccc2)n1 [drawing 340]
- Results in a α7+/− β-galactosidase assay, Myotubes, 0.5 uM (Myotubes, compound at 0.5 uM): 0.05652
- Results in a α7+/− β-galactosidase assay, Myotubes, 1 uM (Myotubes, compound at 1 uM): 0.1643
- Results in a α7+/− β-galactosidase assay, Myotubes, 5 uM (Myotubes, compound at 5 uM): 0.09489
- Results in a α7+/− β-galactosidase assay, Myotubes, 10 uM (Myotubes, compound at 10 uM): −0.07868
- Results in a α7+/− β-galactosidase assay, Myotubes, 20 uM (Myotubes, compound at 20 uM): −0.03697
- Results in a α7+/− β-galactosidase assay, Myotubes, 40 uM (Myotubes, compound at 40 uM): −0.06801
